From ChEMBL document CHEMBL1201862, “PubChem BioAssay data set” (2004)
Counter-ions that a name gives are not always drawn. The source made the active and inactive calls.

Key:
HEK293 [1] = test: cells; format: functional, cell-based; details: Homo sapiens
[2] = target: T1, Nuclear receptor subfamily 0 group B member 1 (Homo sapiens, UniProt P51843); test: Luminescence-based cell-based high throughput dose response assay for inhibitors of the orphan nuclear receptor subfamily 0, group B, member 1 (DAX1; NR0B1). [Related pubchem assays (depositor defined):AID504766, AID504790]; format: functional
T1 sequence (P51843 whole entry): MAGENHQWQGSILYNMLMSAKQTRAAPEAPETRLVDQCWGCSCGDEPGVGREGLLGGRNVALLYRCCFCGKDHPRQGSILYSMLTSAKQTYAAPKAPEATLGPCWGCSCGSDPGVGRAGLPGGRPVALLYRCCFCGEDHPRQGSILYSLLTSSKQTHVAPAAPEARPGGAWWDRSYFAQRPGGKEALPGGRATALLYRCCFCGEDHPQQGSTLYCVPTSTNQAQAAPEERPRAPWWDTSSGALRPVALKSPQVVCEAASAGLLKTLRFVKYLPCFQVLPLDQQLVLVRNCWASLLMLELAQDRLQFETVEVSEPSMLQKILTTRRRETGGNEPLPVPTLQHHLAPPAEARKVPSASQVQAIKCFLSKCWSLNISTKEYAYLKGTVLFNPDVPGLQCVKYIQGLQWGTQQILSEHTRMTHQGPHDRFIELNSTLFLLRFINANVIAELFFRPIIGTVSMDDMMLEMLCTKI

[3] = acridine orange displacement from DNA – biochemical, fluorescence polarization, cherry-pick, artefact control for RAD54 inhibitor project, dose response (AID 651673); format: functional
[4] = target: T2, DNA repair and recombination protein RAD54-like (Homo sapiens, UniProt Q92698); test: RAD54 Holliday junction migration blockers – biochemical, fluorescence, cherry-picked samples, dose series, confirmation (AID 651657); format: functional
T2 sequence (Q92698 whole entry): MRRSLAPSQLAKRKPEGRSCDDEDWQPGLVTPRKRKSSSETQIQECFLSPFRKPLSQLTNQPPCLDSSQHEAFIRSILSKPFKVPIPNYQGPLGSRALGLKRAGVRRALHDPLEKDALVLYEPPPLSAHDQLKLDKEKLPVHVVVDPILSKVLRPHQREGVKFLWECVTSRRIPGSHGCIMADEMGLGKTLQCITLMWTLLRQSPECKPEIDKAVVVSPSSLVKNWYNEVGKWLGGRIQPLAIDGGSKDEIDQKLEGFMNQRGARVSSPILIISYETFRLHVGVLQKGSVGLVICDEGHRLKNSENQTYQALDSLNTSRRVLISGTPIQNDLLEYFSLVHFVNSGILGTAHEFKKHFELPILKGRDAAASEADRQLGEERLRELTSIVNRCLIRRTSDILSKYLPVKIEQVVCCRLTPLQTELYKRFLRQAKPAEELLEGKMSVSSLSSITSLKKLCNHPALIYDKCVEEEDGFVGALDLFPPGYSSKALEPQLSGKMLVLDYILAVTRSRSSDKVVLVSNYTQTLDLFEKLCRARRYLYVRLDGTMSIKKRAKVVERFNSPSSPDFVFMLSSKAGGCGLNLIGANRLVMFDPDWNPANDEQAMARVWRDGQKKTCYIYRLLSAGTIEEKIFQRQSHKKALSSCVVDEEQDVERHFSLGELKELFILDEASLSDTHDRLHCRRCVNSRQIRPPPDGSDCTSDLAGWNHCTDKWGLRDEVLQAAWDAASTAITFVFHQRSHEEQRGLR

[5] = target: T3, DNA repair protein RAD52 homolog (Homo sapiens, UniProt P43351); format: functional, biochemical
T3 sequence (P43351 whole entry): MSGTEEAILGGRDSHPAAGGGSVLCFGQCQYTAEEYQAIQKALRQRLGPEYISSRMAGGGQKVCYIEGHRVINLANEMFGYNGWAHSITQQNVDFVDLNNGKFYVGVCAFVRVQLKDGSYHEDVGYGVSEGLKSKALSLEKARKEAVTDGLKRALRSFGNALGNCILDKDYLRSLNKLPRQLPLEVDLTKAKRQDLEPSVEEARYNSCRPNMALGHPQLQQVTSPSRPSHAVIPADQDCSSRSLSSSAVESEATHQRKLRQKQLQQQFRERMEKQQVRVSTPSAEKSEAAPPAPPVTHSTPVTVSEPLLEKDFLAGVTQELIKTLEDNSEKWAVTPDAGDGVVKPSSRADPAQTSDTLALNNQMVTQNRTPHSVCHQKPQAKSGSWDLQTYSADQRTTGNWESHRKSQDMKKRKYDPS

HEK293 [6] = test: cells; details: Homo sapiens
HEK293 [7] = test: cells; details: Homo sapiens; remark: listed apart in the source
BJ [8] = test: BJ-TERT fibroblast viability loss – cell-based, RAS-independent, luminescence, dose response (AID 1933); format: functional; details: Homo sapiens
BJ [9] = test: cells; format: functional, cell-based; details: Homo sapiens
BJ [10] = test: BJ-TERT-LT-ST fibroblast viability loss – cell-based, RAS-independent, luminescence, dose response (AID 1935); format: functional; details: Homo sapiens;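 note: BJ fibroblasts immortalized with TERT plus LT and ST oncogenes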
[11] = DRD fibroblast viability loss – cell-based, non-viral oncogenic, luminescence, dose response (AID 1934); format: functional; details: Homo sapiens
HeLa = test: viability loss in HeLa cells – cell-based, 24 h, cherry-picked samples, cytotoxicity control, dose response (AID 504726); format: functional; details: Homo sapiens;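 note: potency for cytotoxicity as loss of luminescence signal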
ORF 73 = ORF 73 (Human herpesvirus 8, UniProt O40947); test: KSHV LANA DNA-binding disruption – biochemical, fluorescence polarization, cherry-picked samples, dose response (AID 504725); parameters: species or system Human gammaherpesvirus 8;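 note: fluorescence polarization of a labeled DNA duplex reporting LANA DNA binding; potency is for inhibitors that block LANA binding to the DNA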
[12] = HEK-293T viability loss after treatment – luminescence, T-cell screen hits, cytotoxicity control for TCR NF-kB inhibitor project, dose response (AID 489026); format: functional, cell-based;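 note: cells exposed to compound about 14 hours before the viability readout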
[13] = target: UDP-galactopyranose mutase (Mycobacterium tuberculosis, UniProt P9WIQ1); test: Inhibitors of Mycobacterium tuberculosis UDP-galactopyranose mutase (UGM) enzyme Measured in Biochemical System Using Plate Reader - 2105-02_Inhibitor_Dose_CherryPick_Activity. [Related pubchem assays (depositor defined):AID504439]
Insulin-degrading enzyme [14] = target: T4, Insulin-degrading enzyme (Homo sapiens, UniProt P14735); test: recombinant IDE activation, cell-free – biochemical, fluorescence polarization, counter-screen for IDE activator project, dose response (AID 588681)
T4 sequence (P14735 whole entry): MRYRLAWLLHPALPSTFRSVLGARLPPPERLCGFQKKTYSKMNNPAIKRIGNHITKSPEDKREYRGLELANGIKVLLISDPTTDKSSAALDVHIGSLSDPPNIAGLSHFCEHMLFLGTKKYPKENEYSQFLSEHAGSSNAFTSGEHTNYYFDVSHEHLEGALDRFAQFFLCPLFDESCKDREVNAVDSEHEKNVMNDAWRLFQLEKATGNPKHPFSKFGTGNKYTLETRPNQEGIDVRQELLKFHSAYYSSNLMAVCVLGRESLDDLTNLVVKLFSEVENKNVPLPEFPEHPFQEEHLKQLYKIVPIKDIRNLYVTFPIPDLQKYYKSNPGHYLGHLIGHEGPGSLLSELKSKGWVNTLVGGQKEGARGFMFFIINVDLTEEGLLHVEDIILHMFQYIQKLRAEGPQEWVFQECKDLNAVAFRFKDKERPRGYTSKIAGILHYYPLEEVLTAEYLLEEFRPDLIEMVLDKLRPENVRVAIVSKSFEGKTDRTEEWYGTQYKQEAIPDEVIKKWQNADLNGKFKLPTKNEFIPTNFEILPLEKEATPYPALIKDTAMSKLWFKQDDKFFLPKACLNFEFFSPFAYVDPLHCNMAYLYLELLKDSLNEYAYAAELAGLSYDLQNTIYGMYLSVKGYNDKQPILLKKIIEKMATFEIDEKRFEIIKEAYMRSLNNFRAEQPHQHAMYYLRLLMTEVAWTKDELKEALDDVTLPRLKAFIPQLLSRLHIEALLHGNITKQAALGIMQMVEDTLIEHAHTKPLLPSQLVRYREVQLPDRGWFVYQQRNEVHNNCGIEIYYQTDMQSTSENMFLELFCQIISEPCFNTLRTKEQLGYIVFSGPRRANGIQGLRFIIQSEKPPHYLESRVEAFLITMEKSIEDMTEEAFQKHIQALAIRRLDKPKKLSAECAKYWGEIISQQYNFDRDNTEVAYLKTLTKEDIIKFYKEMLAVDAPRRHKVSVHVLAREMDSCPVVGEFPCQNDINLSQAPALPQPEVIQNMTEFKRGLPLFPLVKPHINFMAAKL

Keap1/Nrf2 = Keap1/Nrf2 (Homo sapiens, UniProt Q14145); test: disruptors of Keap1 binding to Nrf2 peptide – biochemical, fluorescence polarization, cherry-picked samples, dose response (AID 588683)
BJ [15] = test: growth inhibition of engineered Ras-driven BJ cells – cell-based, alamar blue fluorescence, cherrypicked samples, dose response (AID 2631); format: functional; details: Homo sapiens;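 note: confirmatory dose-response assay in RAS-dependent BJ fibroblasts engineered with TERT, LT and ST, with cytotoxicity read by fluorescence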
Insulin-degrading enzyme [16] = target: T4, Insulin-degrading enzyme; test: cellular IDE activation of Abeta substrate cleavage – fluorescence polarization, HEK cells, dose response (AID 588439); format: functional, cell-based
HEK293 [17] = test: membrane integrity loss in HEK cells – cell-based, fluorescence, cytotoxicity control for IDE activator project, dose response (AID 588440); format: functional; details: Homo sapiens;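 note: cytotoxicity by LDH release measuring loss of membrane integrity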
HEK293 [18] = test: optical interference in Abeta FP readout, dose response, artefact control for IDE activator project, biochemical, fluorescence polarization (AID 588442); format: functional, cell-based; details: Homo sapiens
P388/ADR = test: cells; format: functional; details: Mus musculus
SN12K1 = test: cells; format: functional; details: Homo sapiens
P388 = test: cells; format: functional; details: Mus musculus
Paired box protein Pax-8 = Paired box protein Pax-8 (Homo sapiens, UniProt Q06710); test: PAX8 transcriptional activity inhibition in RMG-I – RMG-I cells, luciferase, cherry-pick, dose response (AID 687027); format: functional, cell-based;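 note: luciferase reporter driven by Pax8 target thyroperoxidase promoter measured by SteadyGlo luminescence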
[19] = rise of 2N DNA cells, HeLa – IC50, dose response (AID 1117349); format: functional, cell-based
[20] = CellTiter-Glo luminescence survival assay, SW480 colon tumor line, concentration-response curve, half-maximal inhibitory concentration (AID 1117338); format: functional
[21] = RKO cell viability reduction, dose response, CellTiter-Glo luminescence (AID 1117322); format: functional
[22] = cytotoxicity toward HCT116 cells – cell-based, CellTiter-Glo luminescence, IC50, dose response (AID 1117332); format: functional; details: HCT-116
[23] = SNU-C1 cell viability reduction, dose response, CellTiter-Glo luminescence (AID 1117323); format: functional, cell-based
[24] = rise of 4N DNA cells, HeLa – IC50, dose response (AID 1117351); format: functional, cell-based
[25] = cytotoxicity toward HT-29 cells – cell-based, CellTiter-Glo luminescence, IC50, dose response (AID 1117330); format: functional
[26] = Reduced DLD-1 viability, concentration-response, CellTiter-Glo luminescence (AID 1117352); format: functional
[27] = HCT116 cell viability decrease, GSK3B pretreatment – CellTiter-Glo, IC50, dose response (AID 1117339); format: functional; details: HCT-116

Chain of Keap1/Nrf2 (Q16236 whole entry): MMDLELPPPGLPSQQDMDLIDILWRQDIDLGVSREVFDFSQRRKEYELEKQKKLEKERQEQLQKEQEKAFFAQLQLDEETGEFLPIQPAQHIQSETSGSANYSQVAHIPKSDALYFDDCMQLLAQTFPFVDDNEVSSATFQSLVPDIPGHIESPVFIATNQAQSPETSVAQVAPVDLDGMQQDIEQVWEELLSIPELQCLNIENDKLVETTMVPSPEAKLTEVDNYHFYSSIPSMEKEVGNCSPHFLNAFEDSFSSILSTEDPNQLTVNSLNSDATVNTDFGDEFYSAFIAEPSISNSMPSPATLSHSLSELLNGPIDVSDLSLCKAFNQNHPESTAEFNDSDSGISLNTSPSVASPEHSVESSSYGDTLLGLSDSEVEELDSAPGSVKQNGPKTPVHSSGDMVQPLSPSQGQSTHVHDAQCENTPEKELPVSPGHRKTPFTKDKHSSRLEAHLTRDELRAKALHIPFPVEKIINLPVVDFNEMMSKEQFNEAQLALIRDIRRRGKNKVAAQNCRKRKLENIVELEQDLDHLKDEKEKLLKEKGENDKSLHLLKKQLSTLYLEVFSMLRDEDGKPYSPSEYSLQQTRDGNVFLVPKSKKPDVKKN
Chain of Keap1/Nrf2 (Q14145 whole entry): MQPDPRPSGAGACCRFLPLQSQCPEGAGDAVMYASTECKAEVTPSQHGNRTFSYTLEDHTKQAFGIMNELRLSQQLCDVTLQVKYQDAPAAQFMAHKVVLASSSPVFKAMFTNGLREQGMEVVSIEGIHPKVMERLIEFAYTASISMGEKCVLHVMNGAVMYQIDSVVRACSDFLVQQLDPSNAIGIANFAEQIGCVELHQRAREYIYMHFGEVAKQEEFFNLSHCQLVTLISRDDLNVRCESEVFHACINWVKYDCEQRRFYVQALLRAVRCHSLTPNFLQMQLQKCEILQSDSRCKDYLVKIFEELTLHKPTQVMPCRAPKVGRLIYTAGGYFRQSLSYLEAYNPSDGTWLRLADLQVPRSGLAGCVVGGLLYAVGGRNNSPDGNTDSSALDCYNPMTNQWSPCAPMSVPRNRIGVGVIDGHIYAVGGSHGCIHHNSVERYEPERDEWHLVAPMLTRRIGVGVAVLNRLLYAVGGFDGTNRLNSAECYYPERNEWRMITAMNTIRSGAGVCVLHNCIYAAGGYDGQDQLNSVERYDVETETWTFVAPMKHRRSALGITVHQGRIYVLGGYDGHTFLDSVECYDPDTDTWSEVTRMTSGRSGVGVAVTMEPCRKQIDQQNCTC
Chain of UDP-galactopyranose mutase (P9WIQ1 whole entry): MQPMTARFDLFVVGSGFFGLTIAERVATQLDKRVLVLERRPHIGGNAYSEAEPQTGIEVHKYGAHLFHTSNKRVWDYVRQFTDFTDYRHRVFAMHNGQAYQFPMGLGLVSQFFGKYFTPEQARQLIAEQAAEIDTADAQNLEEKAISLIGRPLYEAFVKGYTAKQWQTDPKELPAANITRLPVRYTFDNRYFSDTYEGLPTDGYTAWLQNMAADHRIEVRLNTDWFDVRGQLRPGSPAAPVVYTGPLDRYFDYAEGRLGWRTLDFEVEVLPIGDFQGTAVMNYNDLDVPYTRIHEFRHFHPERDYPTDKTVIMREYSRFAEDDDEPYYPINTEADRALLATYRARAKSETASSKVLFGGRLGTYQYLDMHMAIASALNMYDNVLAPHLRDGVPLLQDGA
Chain of Paired box protein Pax-8 (Q06710 whole entry): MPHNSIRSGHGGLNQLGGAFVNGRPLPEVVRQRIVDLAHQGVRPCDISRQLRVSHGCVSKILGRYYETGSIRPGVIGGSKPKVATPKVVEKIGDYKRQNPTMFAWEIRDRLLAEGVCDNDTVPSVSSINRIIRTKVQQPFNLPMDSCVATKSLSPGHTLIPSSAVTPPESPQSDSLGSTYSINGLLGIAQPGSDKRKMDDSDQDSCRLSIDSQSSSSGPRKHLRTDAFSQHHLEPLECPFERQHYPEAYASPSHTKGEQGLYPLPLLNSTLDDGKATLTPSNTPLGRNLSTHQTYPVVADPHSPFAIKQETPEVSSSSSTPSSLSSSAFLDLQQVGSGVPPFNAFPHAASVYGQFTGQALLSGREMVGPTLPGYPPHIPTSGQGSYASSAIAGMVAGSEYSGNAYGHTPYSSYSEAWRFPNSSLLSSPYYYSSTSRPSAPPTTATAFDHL
Chain of ORF 73 (O40947 whole entry): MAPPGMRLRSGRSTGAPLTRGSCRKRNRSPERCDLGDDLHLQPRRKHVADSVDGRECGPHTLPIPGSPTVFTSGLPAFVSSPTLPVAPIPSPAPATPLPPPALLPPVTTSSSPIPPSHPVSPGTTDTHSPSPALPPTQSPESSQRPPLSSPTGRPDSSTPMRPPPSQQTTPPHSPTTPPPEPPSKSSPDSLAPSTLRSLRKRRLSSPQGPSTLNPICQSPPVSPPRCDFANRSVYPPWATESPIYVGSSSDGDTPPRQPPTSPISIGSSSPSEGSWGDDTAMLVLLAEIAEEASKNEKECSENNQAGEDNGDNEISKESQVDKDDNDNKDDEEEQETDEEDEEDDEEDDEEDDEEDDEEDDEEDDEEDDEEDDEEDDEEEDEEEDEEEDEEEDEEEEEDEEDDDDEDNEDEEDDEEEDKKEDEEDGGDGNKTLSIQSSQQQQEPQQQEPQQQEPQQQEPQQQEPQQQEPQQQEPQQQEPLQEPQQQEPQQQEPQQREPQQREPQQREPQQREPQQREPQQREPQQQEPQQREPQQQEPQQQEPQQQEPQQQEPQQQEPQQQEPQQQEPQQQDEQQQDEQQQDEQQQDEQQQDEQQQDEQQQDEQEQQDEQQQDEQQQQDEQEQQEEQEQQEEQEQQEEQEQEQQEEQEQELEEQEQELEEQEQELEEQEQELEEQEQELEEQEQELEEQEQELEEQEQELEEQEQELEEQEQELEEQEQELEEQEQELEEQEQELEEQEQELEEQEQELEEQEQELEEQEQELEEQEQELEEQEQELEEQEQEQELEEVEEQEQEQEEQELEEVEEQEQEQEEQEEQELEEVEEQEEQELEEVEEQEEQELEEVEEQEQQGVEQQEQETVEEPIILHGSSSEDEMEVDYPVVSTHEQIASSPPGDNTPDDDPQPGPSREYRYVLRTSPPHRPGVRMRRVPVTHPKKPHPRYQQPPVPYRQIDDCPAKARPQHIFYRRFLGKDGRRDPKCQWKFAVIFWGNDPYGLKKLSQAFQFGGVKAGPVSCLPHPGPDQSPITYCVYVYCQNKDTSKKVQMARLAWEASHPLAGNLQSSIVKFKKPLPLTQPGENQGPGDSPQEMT

SMILES: COc1cc2c3c(cccc3c1)C(=O)N(CCN1CCCC1)C2=O
- IC50 (HEK293 [1]): > 67.6 µM (inactive)
- IC50 [2]: > 67.6 µM (inactive)
- AC50 [3]: 37.1 µM (active)
- AC50 [4]: 2.16 µM (active)
- AC50 [5]: 5.72 µM (active)
- EC50 (HEK293 [6]): > 59.7 µM (inactive)
- EC50 (HEK293 [7]): > 59.7 µM (inactive)

SMILES: CC[C@@]1(O)C(=O)OCc2c1cc1n(c2=O)Cc2cc3c(CN(C)C)c(O)ccc3nc2-1 [TOPOTECAN HYDROCHLORIDE]
- EC50 (BJ [8]): 11.3 µM (active)
- EC50 (BJ [9]): 0.246 µM (active)
- EC50 (BJ [10]): 0.159 µM (active)
- EC50 [11]: 0.549 µM (active)
- AC50 (HeLa): 17.1 µM (active)
- AC50 (ORF 73): 2.15 µM (active)
- IC50 [12]: > 80 µM (inactive)
- AC50 [13]: 6.86 µM (active)
- EC50 (Insulin-degrading enzyme [14]): > 54.7 µM (inactive)
- AC50 (Keap1/Nrf2): 3.7 µM (active)
- EC50 (BJ [15]): 0.0198 µM (active)
- EC50 (Insulin-degrading enzyme [16]): > 54.7 µM (inactive)
- IC50 (HEK293 [17]): > 89.2 µM (inactive)
- EC50 (HEK293 [18]): > 54.7 µM (inactive)
- GI50 (P388/ADR): 0.136 µM (active)
- GI50 (SN12K1): 0.0267 µM (active)
- GI50 (P388): 0.029 µM (active)
- AC50 (Paired box protein Pax-8): < 0.26 µM (active)
- IC50 [19]: 0.0136 µM (active)
- IC50 [20]: 0.233 µM (active)
- IC50 [21]: 0.0342 µM (active)
- IC50 [22]: 0.0341 µM (active)
- IC50 [23]: 0.301 µM (active)
- IC50 [24]: > 10 µM (inactive)
- IC50 [25]: 0.0246 µM (active)
- IC50 [26]: 0.177 µM (active)
- IC50 [27]: 0.00144 µM (active)
